pIC50: −log10 of the molar value. Bounds are passed on as bounds.

The assay has as its target T1, Human MTHFD2 (Homo sapiens, UniProt P13995).
T1 construct: residues 36-350 in Uniport ID P13995; His6 (N); made in house; host or cells: E. coli
T1 sequence (P13995 36-350): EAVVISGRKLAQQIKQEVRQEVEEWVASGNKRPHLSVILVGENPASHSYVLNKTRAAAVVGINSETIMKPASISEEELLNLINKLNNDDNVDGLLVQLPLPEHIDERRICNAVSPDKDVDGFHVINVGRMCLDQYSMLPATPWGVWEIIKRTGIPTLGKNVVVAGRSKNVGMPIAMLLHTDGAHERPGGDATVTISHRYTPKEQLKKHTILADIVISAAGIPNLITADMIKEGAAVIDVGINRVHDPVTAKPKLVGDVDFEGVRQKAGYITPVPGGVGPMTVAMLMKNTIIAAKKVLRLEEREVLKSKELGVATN
In words: MTHFD2 Activity Assay (dehydrogenase activity, diaphorase/resazurin coupled fluorescence). The format is biochemical. To be noted: inhibitory activity (IC50 and/or binding constant); 0.2 nM MTHFD2, 11 concentrations. In outline: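 Resorufin fluorescence (ex 525, em 598 nm) reports NADH formed by the dehydrogenase via diaphorase coupling. Enzyme (0.2 nM, residues 36-350, N-His6) sat with compound 15 min before 70 μM CH2-THF and 1 mM NAD+ started a 30 min reaction. IC50s come from 4-parameter fits over 11 concentrations.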
On the technique in general: Resazurin is reduced to fluorescent resorufin, in cell work by metabolically active cells.
In general, pIC50 refers to the negative decadic logarithm of the IC50, by convention in mol/L. A low value points to a high IC50. The compound `Cn1c(Nc2ccc(Cl)c(CCC(=O)O)n2)nc2c1c(=O)n(Cc1cc3c(Cl)cccc3[nH]1)c(=O)n2C` [Example 396, 3-(3-chloro-6-(1-((4-chloro-1H-indol-2-yl)methyl)-3,7-dimethyl-2,6-dioxo-2,3,6,7-tetrahydro-1H-purin-8-ylamino)pyridin-2-yl)propanoic acid] gave a pIC50 of 6.00 to 8.00.
Turning to `Cn1c(Nc2ccc(CC(N)=O)cc2)nc2c1c(=O)n(Cc1cc3c(Cl)cccc3[nH]1)c(=O)n2C` [Example 431, 2-[4-[[1-[(4-chloro-1H-indol-2-yl)methyl]-3,7-dimethyl-2,6-dioxo-purin-8-yl]amino]phenyl]acetamide], the pIC50 was 6.00 to 8.00.
As to `Cn1c(CCN2CCOCC2)nc2c1c(=O)n(Cc1ccc(Cl)c(Cl)c1)c(=O)n2C` [Example 159, 1-(3,4-dichlorobenzyl)-3,7-dimethyl-8-(2-morpholinoethyl)-1H-purine-2,6(3H,7H)-dione], the negative-log IC50 (pIC50) was 6.00 to 8.00.
For `Cn1c(N[C@H]2C[C@H](CO)C2)nc2c1c(=O)n(Cc1cc3ccccc3[nH]1)c(=O)n2C` [Example 295, 1-((1H-indol-2-yl)methyl)-8-((1R,3R)-3-(hydroxymethyl)cyclobutylamino)-3,7-dimethyl-1H-purine-2,6(3H,7H)-dione] the value was 6.00 to 8.00.
For `Cn1c(N[C@H]2CCC[C@H](O)C2)nc2c1c(=O)n(Cc1ccc(Cl)c(Cl)c1)c(=O)n2C` (single isomer, unassigned) [Example 81, 1-(3,4-dichlorobenzyl)-8-((1S,3S)-3-hydroxycyclohexylamino)-3,7-dimethyl-1H-purine-2,6(3H,7H)-dione or 1-(3,4-dichlorobenzyl)-8-((1R,3R)-3-hydroxycyclohexylamino)-3,7-dimethyl-1H-purine-2,6(3H,7H)-dione] the value was 6.00 to 8.00; for `Cn1c(Cn2c(=O)c3c(nc(-n4nccc4N)n3C)n(C)c2=O)cc2cc(Cl)ccc21` [Example 220, 8-(5-amino-1H-pyrazol-1-yl)-1-((5-chloro-1-methyl-1H-indol-2-yl)methyl)-3,7-dimethyl-1H-purine-2,6(3H,7H)-dione], 6.00 to 8.00; for `Cn1c(N[C@H]2CC[C@@H](O)C2)nc2c1c(=O)n(Cc1cc3cc(Cl)ccc3[nH]1)c(=O)n2C` (racemic) [Example 175, (±)-1-((5-chloro-1H-indol-2-yl)methyl)-8-((cis)-3-hydroxycyclopentylamino)-3,7-dimethyl-1H-purine-2,6(3H,7H)-dione], 6.00 to 8.00.
`Cn1c(Nc2ccnc([C@@H]3C[C@H]3CO)c2)nc2c1c(=O)n(Cc1ccc(Cl)c(Cl)c1)c(=O)n2C` (single isomer, unassigned) [Example 338, 1-(3,4-dichlorobenzyl)-8-((2((1R,2R)-2-(hydroxymethyl)cyclopropyl)pyridin-4-yl)amino)-3,7-dimethyl-1H-purine-2,6(3H,7H)-dione or 1-(3,4-dichlorobenzyl)-8-((2-((1S,2S)-2-(hydroxymethyl)cyclopropyl)pyridin-4-yl)amino)-3,7-dimethyl-1H-purine-2,6(3H,7H)-dione] showed a pIC50 of 5.00 to 5.30.
`Cn1c(Nc2ccnc(CCC(=O)N3CCC3)n2)nc2c1c(=O)n(Cc1cc3c(Cl)cccc3[nH]1)c(=O)n2C` [Example 413, 8-(2-(3-(azetidin-1-yl)-3-oxopropyl)pyrimidin-4-ylamino)-1-((4-chloro-1H-indol-2-yl)methyl)-3,7-dimethyl-1H-purine-2,6(3H,7H)-dione]: the pIC50 is 6.00 to 8.00.
For `Cn1c(Nc2cccc(C(=O)O)c2)nc2c1c(=O)n(Cc1ccc(Cl)c(Cl)c1)c(=O)n2C` [Example 286, 3-((1-(3,4-dichlorobenzyl)-3,7-dimethyl-2,6-dioxo-2,3,6,7-tetrahydro-1H-purin-8-yl)amino)benzoic acid] the value was 6.00 to 8.00; for `Cn1c(Cn2c(=O)c3c(nc(N)n3C)n(C)c2=O)cc2cc(Cl)ccc21` [Example 237, 8-amino-1-((5-chloro-1-methyl-1H-indol-2-yl)methyl)-3,7-dimethyl-1H-purine-2,6(3H,7H)-dione], 5.30 to 6.00.
For `Cc1cc(Nc2nc3c(c(=O)n(Cc4cc5c(Cl)cccc5[nH]4)c(=O)n3C)n2C)nc(CCC(N)=O)n1` [Example 475, 3-(4-(1-((4-chloro-1H-indol-2-yl)methyl)-3,7-dimethyl-2,6-dioxo-2,3,6,7-tetrahydro-1H-purin-8-ylamino)-6-methylpyrimidin-2-yl)propanamide] the value was 6.00 to 8.00; for `CNc1nc2c(c(=O)n(Cc3ccc(Cl)c(Cl)c3)c(=O)n2C)n1C` [Example 21, 1-[(3,4-dichlorophenyl)methyl]-3,7-dimethyl-8-(methylamino)-2,3,6,7-tetrahydro-1H-purine-2,6-dione], 5.30 to 6.00.
For `Cn1c(-n2c(N)nc3ccccc32)nc2c1c(=O)n(Cc1cc3c(Cl)cccc3[nH]1)c(=O)n2C` [Example 353, 8-(2-amino-1H-benzo[d]imidazol-1-yl)-1-((4-chloro-1H-indol-2-yl)methyl)-3,7-dimethyl-1H-purine-2,6(3H,7H)-dione] the value was 5.30 to 6.00; for `Cn1c(Nc2ccncc2)nc2c1c(=O)n(Cc1cc3c(Cl)ccc(F)c3[nH]1)c(=O)n2C` [Example 474, 1-((4-chloro-7-fluoro-1H-indol-2-yl)methyl)-3,7-dimethyl-8-(pyridin-4-ylamino)-1H-purine-2,6(3H,7H)-dione], 6.00 to 8.00.
Turning to `Cn1c(Nc2ccnc([C@@H]3C[C@H]3C(=O)O)c2)nc2c1c(=O)n(Cc1cc3c(Cl)cccc3[nH]1)c(=O)n2C` (single isomer, unassigned) [Example 322, (1R,2R)-2-(4-((1-((4-chloro-1H-indol-2-yl)methyl)-3,7-dimethyl-2,6-dioxo-2,3,6,7-tetrahydro-1H-purin-8-yl)amino)pyridin-2-yl)cyclopropanecarboxylic acid or (1S,2S)-2-(4-((1-((4-chloro-1H-indol-2-yl)methyl)-3,7-dimethyl-2,6-dioxo-2,3,6,7-tetrahydro-1H-purin-8-yl)amino)pyridin-2-yl)cyclopropanecarboxylic acid], the pIC50 was 6.00 to 8.00.
For `Cn1c(NC2(CO)CCCC2)nc2c1c(=O)n(Cc1ccc(C(F)(F)F)cc1)c(=O)n2C` [Example 128, 8-(1-(hydroxymethyl)cyclopentylamino)-3,7-dimethyl-1-(4-(trifluoromethyl)benzyl)-1H-purine-2,6(3H,7H)-dione] the value was under 5.00; for `Cn1c(N[C@@H]2CCC[C@@H]2C(=O)O)nc2c1c(=O)n(Cc1ccc(Cl)c(Cl)c1)c(=O)n2C` [Example 111, (1S,2R)-2-(1-(3,4-dichlorobenzyl)-3,7-dimethyl-2,6-dioxo-2,3,6,7-tetrahydro-1H-purin-8-ylamino)cyclopentanecarboxylic acid], 6.00 to 8.00; for `Cn1cnc2c1c(=O)n(Cc1cc3cc(Cl)ccc3n1C)c(=O)n2C` [Example 242, 1-((5-chloro-1-methyl-1H-indol-2-yl)methyl)-3,7-dimethyl-1H-purine-2,6(3H,7H)-dione], 5.30 to 6.00.
In turn, `Cn1c(C(N)C2CCCC2)nc2c1c(=O)n(Cc1cc3c(Cl)cccc3[nH]1)c(=O)n2C` (centres unmarked) [Example 464, 8-(amino(cyclopentyl)methyl)-1-((4-chloro-1H-indol-2-yl)methyl)-3,7-dimethyl-3,7-dihydro-1H-purine-2,6-dione] had a pIC50 of 6.00 to 8.00.

Values taken from patent US12187728B2 (Raze Therapeutics, Inc., priority 2015, dated 2025).
